# Earlier results as cited in US5998415A, “Bicyclic heteroaryl-alkylene-(homo)piperazinones and thione analogues thereof, their preparation, and their use of as selective agonists of 5-HT1 -like receptors” (Merck Sharp & Dohme Ltd., priority 1995, dated 1999).
# Columns and labels:
# [1] = tested on: human 5-HT1Dα and 5-HT1Dβ receptor subtypes; details: cf. WO-A-91/17174, Table 1
# [2] = humans, therapeutic doses
smiles,measurement,setting,value
CNS(=O)(=O)Cc1ccc2[nH]cc(CCN(C)C)c2c1 [sumatriptan],discrimination between the human 5-HT1Dα and 5-HT1Dβ receptor subtypes (in words),[1],barely discriminates between the human 5-HT1Dα and 5-HT1Dβ receptor subtypes
same,adverse cardiovascular events (in words),[2],certain adverse cardiovascular events
